Results: US20240140895A1, “NOVEL AROMATIC MOLECULES” (XENIOPRO GmbH, priority 2018, published 2024)

Tested on: Notch signaling (human Notch1 receptor, hNotch1ΔE)
Assay: Notch reporter assay (dual luciferase, HeLa cells transfected with hNotch1ΔE)
Type: cell-based
Conditions: 10 μM
From the text: The activation level of Notch signaling can be quantified in vitro reliably by measuring the expression levels of Notch specific target genes. This can be accomplished by the quantification of corresponding mRNA or protein of a particular Notch target gene. Alternatively, cells can be genetically modified to carry a luciferase gene as an artificial Notch target gene, which is expressed in dependence of Notch activity. In this setting, Notch signaling levels can be quantified by measuring the luciferase-derived bioluminescence values.
An according Notch-reporter assay, i.e. a luciferase-based luminescence readout, was used here to quantify the ability of the claimed compounds to augment Notch signaling in a cellular system. […] After 24 hours of transfection, the transfected cells were carefully detached from the dish using 0.5 mM EDTA in PBS and seeded into 96-well plates suitable for luminescence readouts (CORNING, #3610) at 10,000 cells per well. […] Directly after the lysis, first the Firefly and then the Renilla luciferase values were measured consecutively from the same well with a luminescence reader immediately after applying 15 μL per well each of the corresponding enzyme substrates needed to create the luminescence signals (Promega, Dual-Luciferase® Reporter Assay System, #E1910). […]

SMILES: Oc1ccc(C=Cc2cc(O)cc(O)c2)cc1 [RES, resveratrol, reference compound]
- Activity Range: weighted arithmetic mean (AVEw) of double-normalized Notch-reporter luminescence, relative to DMSO basis level 1.0: 1.9 ± 0.5
